Data as given in the NIST ThermoML archive (doi:10.1016/j.tca.2007.07.015).

Experiment: excess molar enthalpy (molar enthalpy of mixing); xn = mol fraction of the nth substance listed
Conditions: 973 K, Liquid, Calvet calorimetry

[Pb] [lead] + [Ag]
Conditions | excess molar enthalpy [kcal/mol]
101.3 kPa, x2 = 0.2 | 0.555

[Pb] [lead] + [Au]
101 kPa
Conditions | excess molar enthalpy [kcal/mol]
x2 = 0.0446 | -0.0574
x2 = 0.0465 | -0.0433
x2 = 0.0726 | -0.0915
x2 = 0.0864 | -0.111
x2 = 0.0922 | -0.0825
x2 = 0.1272 | -0.151
x2 = 0.1358 | -0.127
x2 = 0.1368 | -0.154
x2 = 0.1653 | -0.174
x2 = 0.1768 | -0.159
x2 = 0.1938 | -0.189
x2 = 0.2 | -0.212
x2 = 0.2003 | -0.202
x2 = 0.2148 | -0.187
x2 = 0.2333 | -0.209
x2 = 0.2482 | -0.212
x2 = 0.2506 | -0.204
x2 = 0.2652 | -0.228
x2 = 0.2841 | -0.22
x2 = 0.2962 | -0.24
x2 = 0.2966 | -0.228
x2 = 0.3161 | -0.222
x2 = 0.3226 | -0.244
x2 = 0.3436 | -0.235
x2 = 0.3455 | -0.232
x2 = 0.3733 | -0.235
x2 = 0.3862 | -0.239
x2 = 0.4 | -0.257
x2 = 0.402 | -0.241
x2 = 0.4248 | -0.241
x2 = 0.4294 | -0.248
x2 = 0.4416 | -0.249
